Reference: ChEMBL document CHEMBL3882391, “Substituted tricyclic compounds as protein kinase inhibitors” (2008)
The source made the active and inactive calls. No cut-off for these calls is given here.

Tests used:
MIA PaCa-2 [1] = experiment: Inhibition of cell proliferation of human MIAPaCa2 cells at 0.01 to 1000 uM after 4 days by MTS assay; assay type: functional, cell-based
T47D = experiment: Inhibition of cell proliferation of human T47D cells at 0.1 to 1000 uM after 4 days by MTS assay; assay type: functional, cell-based
COLO 320 = experiment: Inhibition of cell proliferation of human COLO320 cells at 0.1 to 1000 uM after 4 days by MTS assay; assay type: functional
MIA PaCa-2 [2] = experiment: Inhibition of cell proliferation of human MIAPaCa2 cells at 3 to 300 uM after 48 hrs by hematocytometry; assay type: functional, cell-based
MCF7 = experiment: Inhibition of cell proliferation of human MCF7 cells at 0.1 to 1000 uM after 4 days by MTS assay; assay type: functional, cell-based
Caco-2 = experiment: Inhibition of cell proliferation of human Caco2 cells at 0.1 to 1000 uM after 4 days by MTS assay; assay type: functional, cell-based
MDA-MB-435 = experiment: Inhibition of cell proliferation of human MDA-MB-435 cells at 0.1 to 1000 uM after 4 days by MTS assay; assay type: functional, cell-based
ASPC1 = experiment: Inhibition of cell proliferation of human AsPC1 cells at 0.1 to 1000 uM after 4 days by MTS assay; assay type: functional, cell-based
A2780 = experiment: Inhibition of cell proliferation of human A2780 cells at 0.1 to 1000 uM after 4 days by MTS assay; assay type: functional, cell-based
PANC-1 = experiment: Inhibition of cell proliferation of human PANC1 cells at 0.01 to 1000 uM after 4 days by MTS assay; assay type: functional, cell-based
[3] = target: T1, Aurora kinase A (Homo sapiens) (UniProt O14965); experiment: Inhibition of human recombinant aurora-2 kinase expressed in Sf9 cells at 20 uM using kemptide as substrate by kinase-Glo luciferase assay
T1 sequence (whole entry): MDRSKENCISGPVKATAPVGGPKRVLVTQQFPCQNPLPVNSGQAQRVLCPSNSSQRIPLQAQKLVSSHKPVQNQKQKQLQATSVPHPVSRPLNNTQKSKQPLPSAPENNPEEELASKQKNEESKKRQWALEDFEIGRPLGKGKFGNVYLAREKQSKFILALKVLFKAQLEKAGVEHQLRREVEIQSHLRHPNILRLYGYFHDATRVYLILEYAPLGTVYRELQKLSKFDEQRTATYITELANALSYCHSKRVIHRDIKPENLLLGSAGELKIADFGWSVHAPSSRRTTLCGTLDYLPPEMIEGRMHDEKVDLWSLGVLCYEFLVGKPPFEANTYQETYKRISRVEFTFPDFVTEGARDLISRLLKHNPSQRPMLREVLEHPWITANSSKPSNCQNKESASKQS

## COc1cc2[nH]c3ncnc(N4CCN(C(=S)Nc5ccc(S(=O)(=O)Nc6ncccn6)cc5)CC4)c3c2cc1OC
MIA PaCa-2 [1]
  inhibition: Active
T47D
  inhibition: Active
COLO 320
  inhibition: Active
MIA PaCa-2 [2]
  inhibition: Active
MCF7
  inhibition: Active
Caco-2
  inhibition: Active
MDA-MB-435
  inhibition: Active
ASPC1
  inhibition: Active
A2780
  inhibition: Active
PANC-1
  inhibition: Active

## COc1cc2ncnc(N3CCN(C(=S)Nc4ccc(S(=O)(=O)Nc5ncccn5)cc4)CC3)c2cc1OC
[3]
  inhibition: Active

## O=S(=O)(Nc1ncccn1)c1ccc(Nc2ncnc3c2oc2ccccc23)cc1
[3]
  inhibition: Active

## O=S(=O)(Nc1ncccn1)c1ccc(Nc2ncnc3c2sc2ncccc23)cc1
[3]
  inhibition: Active

## COc1cc2ncnc(Nc3cccc(Br)c3)c2cc1OC
[3]
  inhibition: Active
